Experimental data reported in the NIST ThermoML archive (doi:10.1016/j.jct.2008.01.001).
Numbers after ± are expanded uncertainties.

Assays:
[1] = Liquid; for mass density: 273.15 K, 101.33 kPa; for Normal boiling temperature: Ebulliometric method (Recirculating still)
[2] = refractive index (Na D-line) (dimensionless); conditions: 273.15 K; 101.33 kPa; Liquid; Standard Abbe refractometry

| mass density [1] | Normal boiling temperature [1] | refractive index [2] | SMILES |
| --- | --- | --- | --- |
| 832.3 ± 1.2 kg/m3 | 185.1 ± 0.02 °C |  | CCCCC(CC)CO (stereo not given) [2-ethyl-1-hexanol] |
| 992.7 ± 0.4 kg/m3 | 141.0 ± 0.02 °C | 1.3811 ± 0.0004 | CCC(=O)O [propanoic acid] |
